These results are taken from patent US8088806B2 (Achillion Pharmaceuticals, Inc., priority 2005, dated 2012).

In one experiment the test system is HCV replicon. The experiment in a line: Replicon based assay of HCV replication inhibition (NPT ELISA). It counts as cell-based, Hepatitis C virus. Particulars: Hepatitis C virus, Huh-7, 72 h, Table I; Huh-7 HCV replicon-containing cells, three days; read-out: Activity. The gist of the method: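 NPT (neomycin phosphotransferase) content, proportional to replicon replication, quantified by capture ELISA on day four. Before that, replicon-bearing Huh-7 cells in G418-free screening medium were exposed three days at 37° C to compound, typically six doses from 10 to 0.03 micromolar, with equal DMSO across wells.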
In the case of `CCCCCOc1ccc(Nc2nc(-c3cccnc3)cs2)cc1F` [compound 68, N-(3-fluoro-4-(pentyloxy)phenyl)-4-(pyridin-3-yl)thiazol-2-amine], the EC50 is less than 1000 nM.

On to `CCCCCOc1ccc(Nc2nc(C(N)=O)cs2)cc1C(F)(F)F` [compound 18, 2-(3-(trifluoromethyl)-4-(pentyloxy)phenylamino)thiazole-4-carboxamide], for which the EC50 was less than 1000 nM. Still for that read-out and setting: for `CCCCCOc1ccc(Nc2nc(C(C)=O)c(C)s2)cc1C(F)(F)F` [compound 136, 1-(2-(3-(trifluoromethyl)-4-(pentyloxy)phenylamino)-5-methylthiazol-4-yl)ethanone] the value was greater than 10000 nM; for `Fc1ccc(-c2csc(Nc3ccc(Cc4ccccc4)cc3)n2)cc1` [compound 39, N-(4-benzylphenyl)-4-(4-fluorophenyl)thiazol-2-amine], greater than 10000 nM; for `CCCCCOc1ccc(Nc2nc(C(N)CC(C)C)cs2)cc1C(F)(F)F` (stereo not drawn) [compound 161, 4-(1-amino-3-methylbutyl)-N-(3-(trifluoromethyl)-4-(pentyloxy)phenyl)thiazol-2-amine], 1000 to 10000 nM. The same measure, in the same setting: the value for `N#Cc1ccc(Nc2nc(-c3ccc(Cl)cc3)cs2)cc1` [compound 54, 4-(4-(4-chlorophenyl)thiazol-2-ylamino)benzonitrile] was greater than 10000 nM.

The same experiment, now with this note: Hepatitis C virus, Huh-7, 72 h, Table III; Huh-7 HCV replicon-containing cells, three days; read-out: Activity.
Regarding `CCCCCCCCOc1ccc(Nc2nc(-c3cnc(NC(C)=O)c(C)c3)cs2)cc1C(F)(F)F` [compound 686, N-(5-(2-(3-(trifluoromethyl)-4-(octyloxy)phenylamino)thiazol-4-yl)-3-methylpyridin-2-yl)acetamide], the EC50 was less than 1000 nM.

Regarding `CCCCCCCCOc1ccc(Nc2nc(-c3ccc(OCC(=O)O)cc3)c(C)s2)cc1C(F)(F)F` [compound 586, 2-(4-(2-(3-(trifluoromethyl)-4-(octyloxy)phenylamino)-5-methylthiazol-4-yl)phenoxy)acetic acid], the EC50 was less than 1000 nM.

Consider `CCCCCOc1ccc(Nc2nc(Cc3ccc(Cl)cc3)cs2)cc1C(F)(F)F` [compound 633, 4-(4-chlorobenzyl)-N-(3-(trifluoromethyl)-4-(pentyloxy)phenyl)thiazol-2-amine], for which the EC50 was 1000 to 10000 nM. On the same count and under the same terms, the value for `CCCCCN(C)c1ccc(Nc2nc(Cc3ccc(F)cc3)cs2)cc1C(F)(F)F` [compound 631, N^4-(4-(4-fluorobenzyl)thiazol-2-yl)-2-(trifluoromethyl)-N^1-methyl-N^1-pentylbenzene-1,4-diamine] was greater than 10000 nM. With `CCCCCOc1ccc(Nc2nc(Cc3ccc(OC)cc3)cs2)cc1F` [compound 642, 4-(4-methoxybenzyl)-N-(3-fluoro-4-(pentyloxy)phenyl)thiazol-2-amine], the EC50 is greater than 10000 nM. Take `CCCCCCCCOc1ccc(Nc2nc3c(s2)CCc2ncccc2-3)cc1` [compound 595, 4,5-dihydro-N-(4-(octyloxy)phenyl)thiazolo[4,5-f]quinolin-2-amine]: the EC50 fell in the range of 1000 to 10000 nM.

Regarding `CCCCCCCCN(C)c1ccc(Nc2nc(Cc3ccc(OC)cc3)cs2)cc1` [compound 644, N^1-(4-(4-methoxybenzyl)thiazol-2-yl)-N^4-methyl-N^4-octylbenzene-1,4-diamine], the EC50 is greater than 10000 nM.

For `CCCCCCCCN(C)c1ncc(Nc2nc(-c3cccnc3)cs2)cc1C(F)(F)F` [compound 684, 3-(trifluoromethyl)-N^2-methyl-N^2-octyl-N^5-(4-(pyridin-3-yl)thiazol-2-yl)pyridine-2,5-diamine], the EC50 is greater than 10000 nM. Same read-out and setting: for `CCCCCCCCOc1ccc(Nc2nc(-c3ccc(CCO)cc3)cs2)cc1C(F)(F)F` [compound 666, 2-(4-(2-(3-(trifluoromethyl)-4-(octyloxy)phenylamino)thiazol-4-yl)phenyl)ethanol] the value was less than 1000 nM; for `CCCCCCCCOc1ccc(Nc2nc(-c3sc(-c4cnccn4)nc3C)cs2)cc1C(F)(F)F` [compound 590, N-(3-(trifluoromethyl)-4-(octyloxy)phenyl)-4-(4-methyl-2-(pyrazin-2-yl)thiazol-5-yl)thiazol-2-amine], less than 1000 nM. Still for that read-out and setting: for `CCCCCOc1ccc(Nc2nc(-c3ccc(F)nc3)cs2)cc1F` [compound 527, N-(3-fluoro-4-(pentyloxy)phenyl)-4-(6-fluoropyridin-3-yl)thiazol-2-amine] the value was less than 1000 nM; for `CCCCCCCc1ccc(Nc2nc(-c3ccc(O)c(O)c3)cs2)cc1` [compound 559, 4-(2-(4-heptylphenylamino)thiazol-4-yl)benzene-1,2-diol], less than 1000 nM.

Still in this experiment, the particulars now being: Hepatitis C virus, replicon based assay of HCV replication inhibition; Table II; read-out: Activity.
For `CCCCCOc1ccc(Nc2nc(C(=O)Nc3ccc(C(F)(F)F)nc3)cs2)cc1C(F)(F)F` [compound 233, 2-(4-(pentyloxy)-3-(trifluoromethyl)phenyl-amino)-N-(6-(trifluoromethyl)pyridin-3-yl)thiazole-4-carboxamide], the EC50 was greater than 10000 nM. Still for that read-out and setting: for `CCCCCCCOc1ccc(Nc2nc(-c3ccc(O)c(O)c3)cs2)cc1` [compound 392, 4-(2-(4-(heptyloxy)phenylamino)thia-zol-4-yl)benzene-1,2-diol] the value was less than 1000 nM.

On to `CCCCCCCCOc1ccc(Nc2nc(-c3ccc(Br)cc3)cs2)cc1` [compound 382, 4-(4-bromophenyl)-N-(4-(octyloxy)phenyl)thiazol-2-amine], for which the EC50 is less than 1000 nM. On the same count and under the same terms, for `CCCCCOc1ccc(Nc2nc(-c3ccc(F)nc3)cs2)cc1C(F)(F)F` [compound 486, N-(3-(trifluoromethyl)-4-(pentyloxy)phenyl)-4-(6-fluoropyridin-3-yl)thiazol-2-amine] the value was less than 1000 nM; for `CCCCCOc1ccc(Nc2nc(C3CCCN(C(=O)OC(C)(C)C)C3)cs2)cc1C(F)(F)F` (stereo not drawn) [compound 224, tert-butyl 3-(2-(4-(pentyloxy)-3-(trifluoromethyl)phenyl-amino)thiazol-4-yl)piperidine-1-carboxylate], less than 1000 nM. Still for that read-out and setting: for `CCCCCCCCOc1ccc(Nc2nc(CN3CCOCC3)cs2)cc1` [compound 316, 4-(morpholinomethyl)-N-(4-(octyloxy)phenyl)thiazol-2-amine] the value was 1000 to 10000 nM; for `CC(=O)Nc1ccc(Nc2nc(-c3cccs3)cs2)cc1` [compound 429, N-(4-(4-(thiophen-2-yl)thiazol-2-ylamino)phenyl)acetamide], greater than 10000 nM; for `CCCCCCCCN(C)c1ccc(Nc2nc(-c3cccnc3)cs2)cc1C(F)(F)F` [compound 477, 2-(trifluoromethyl)-N^1-methyl-N^1-octyl-N^4-(4-(pyridin-3-yl)thiazol-2-yl)benzene-1,4-diamine], less than 1000 nM. Same read-out and setting: for `CCCCCOc1ccc(Nc2nc(-c3cc4ccccc4o3)cs2)cc1F` [compound 419, 4-(benzofuran-2-yl)-N-(3-fluoro-4-(pentyloxy)phenyl)thiazol-2-amine] the value was 1000 to 10000 nM; for `CC(C)COc1ccc(Nc2nc(-c3ccc(CC(=O)O)s3)cs2)cc1C(F)(F)F` [compound 244, 2-(5-(2-(4-isobutoxy-3-(trifluoromethyl)phenyl-amino)thiazol-4-yl)thiophen-2-yl)acetic acid], less than 1000 nM; for `CCCCCCCc1ccc(C(=O)Nc2nc(-c3ccc(Cl)cc3)cs2)cc1` [compound 451, N-(4-(4-chlorophenyl)thiazol-2-yl)-4-heptylbenzamide], less than 1000 nM. With `Cc1sc(Nc2cccc(C(F)(F)F)c2)nc1-c1ccc(F)cc1` [compound 348, 4-(4-fluorophenyl)-5-methyl-N-(3-(trifluoromethyl)phenyl)thia-zol-2-amine], the EC50 fell in the range of 1000 to 10000 nM. As to `CC(C)COc1ccc(Nc2nc(-c3ccc(F)cc3)cs2)cc1C(F)(F)F` [compound 242, 4-(4-fluorophenyl)-N-(4-isobutoxy-3-(trifluoromethyl)phenyl)thia-zol-2-amine], the EC50 is less than 1000 nM.

Staying with this experiment, now noted: Hepatitis C virus, replicon based assay of HCV replication inhibition; Table IV; read-out: Activity.
For the compound `CCCCCCCCOc1ccc(Nc2nc(C3=CSC4=NC(=O)CN34)cs2)cc1C(F)(F)F` [compound 801, 3-(2-(3-(trifluoromethyl)-4-(octyloxy)phenylamino)thiazol-4-yl)imidazo[2,1-b]thiazol-6(SH)-one], the EC50 was less than 1000 nM. Still for that read-out and setting: for `O=c1[nH]c2ccc(-c3csc(Nc4ccc(OCC5CCCCC5)c(F)c4)n3)cc2c(=O)o1` [compound 723, 6-(2-(4-(cyclohexylmethoxy)-3-fluorophenylamino)thiazol-4-yl)-1H-benzo[d][1,3]oxazine-2,4-dione] the value was 1000 to 10000 nM; for `FC(F)(F)c1cc(Nc2nc(-c3cncnc3-c3ccccc3)cs2)ccc1OCC1CCCCC1` [compound 763, N-(4-(cyclohexylmethoxy)-3-(trifluoromethyl)phenyl)-4-(4-phenylpyrimidin-5-yl)thiazol-2-amine], 1000 to 10000 nM; for `CCCCCCCN(C)Cc1ccc(Nc2nc(-c3cccnc3)cs2)cc1C(F)(F)F` [compound 833, N-(4-((heptyl(methyl)amino)methyl)-3-(trifluoromethyl)phenyl)-4-(pyridin-3-yl)thiazol-2-amine], less than 1000 nM. Same read-out and setting: for `c1cncc(-c2csc(Nc3ccc4nccnc4c3)n2)c1` [compound 761, N-(4-(pyridin-3-yl)thiazol-2-yl)quinoxalin-6-amine] the value was greater than 10000 nM; for `FC(F)(F)c1cc(Nc2nc(-c3cnccn3)cs2)ccc1OCCCCc1ccccc1` [compound 940, N-(4-(4-phenylbutoxy)-3-(trifluoromethyl)phenyl)-4-(pyrazin-2-yl)thiazol-2-amine], less than 1000 nM. Still for that read-out and setting: the value for `CCCCCCCCOc1ccc(Nc2nc(-c3cccnc3)c([N+](=O)[O-])s2)cc1C(F)(F)F` [compound 787, N-(3-(trifluoromethyl)-4-(octyloxy)phenyl)-5-nitro-4-(pyridin-3-yl)thiazol-2-amine] was 1000 to 10000 nM; that for `Fc1ccc(Cn2ccc3cc(Nc4nc(-c5cccnc5)cs4)ccc32)cc1` [compound 870] was less than 1000 nM.
